The target in assay [1] is T1, Histamine H3 receptor (Homo sapiens, UniProt Q9Y5N1). Briefly: Agonist activity at human histamine H3 receptor expressed in sf9 cell membrane co-expressing mammalian Galphai2 and Gbeta1gamma2 incubated for 90 mins by [35S]GTPgammaS binding assay. The format is functional. For orientation: Binding of GTPγS marks nucleotide exchange on a G protein.
Assay [2] deals with T2, Histamine H4 receptor (Mus musculus, UniProt Q91ZY2).
T2 sequence (Q91ZY2 whole entry): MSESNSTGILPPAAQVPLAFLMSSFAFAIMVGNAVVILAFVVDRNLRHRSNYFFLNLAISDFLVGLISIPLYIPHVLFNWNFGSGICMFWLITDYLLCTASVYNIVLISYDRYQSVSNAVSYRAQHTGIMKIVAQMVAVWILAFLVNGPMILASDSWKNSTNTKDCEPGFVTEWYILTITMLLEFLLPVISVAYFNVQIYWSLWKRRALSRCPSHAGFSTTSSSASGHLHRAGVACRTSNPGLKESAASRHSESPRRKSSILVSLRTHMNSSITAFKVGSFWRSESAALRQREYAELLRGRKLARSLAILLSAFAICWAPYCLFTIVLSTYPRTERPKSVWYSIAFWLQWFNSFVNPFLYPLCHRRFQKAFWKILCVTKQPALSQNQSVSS
Briefly: Agonist activity at mouse SF-His6-tagged histamine H4 receptor expressed in HEK293 cells assessed as inhibition of forskolin-stimulated response incubated for 5 hrs by luciferase reporter gene assay. Format: cell-based.

Assay [3] addresses T3, Histamine H2 receptor (Homo sapiens, UniProt P25021). Kind of assay: Displacement of [3H]tiotidine from human histamine H2 receptor expressed in sf9 cell membrane co-expressing Gsalphas incubated for 60 mins by liquid scintillation counting method. On the technique in general: In a radioligand displacement assay an active substance lowers the binding of a labelled ligand.

The target of assay [4] is T4, Histamine H4 receptor (Homo sapiens, UniProt Q9H3N8). Kind of assay: Displacement of [3H]UR-PI294 from human histamine H4 receptor expressed in sf9 cell membrane co-expressing mammalian Galphai2 and Gbeta1gamma2 incubated for 60 mins by liquid scintillation counting method.
Assay [5] addresses T4, Histamine H4 receptor. Kind of assay: Agonist activity at human SF-His6-tagged histamine H4 receptor expressed in HEK293 cells assessed as inhibition of forskolin-stimulated response incubated for 5 hrs by luciferase reporter gene assay. Format: cell-based.
Assay [6] has as its target T5, Histamine H1 receptor (Homo sapiens, UniProt P35367). Kind of assay: Displacement of [3H]mepyramine from human histamine H1 receptor expressed in sf9 cell membrane co-expressing RGS4 incubated for 60 mins by liquid scintillation counting method.
In assay [7] the target is T1, Histamine H3 receptor. Kind of assay: Displacement of [3H]N-alpha-methylhistamine from human histamine H3 receptor expressed in sf9 cell membrane co-expressing mammalian Galphai2 and Gbeta1gamma2 incubated for 60 mins by liquid scintillation counting method.
For assay [8], the target named is T4, Histamine H4 receptor. Briefly: Agonist activity at human histamine H4 receptor expressed in sf9 cell membrane co-expressing mammalian Galphai2 and Gbeta1gamma2 incubated for 90 mins by [35S]GTPgammaS binding assay. Format: functional.
In assay [9] the target is T1, Histamine H3 receptor. Briefly: Intrinsic activity at human histamine H3 receptor expressed in sf9 cell membrane co-expressing mammalian Galphai2 and Gbeta1gamma2 at 10 uM incubated for 90 mins by [35S]GTPgammaS binding assay relative to histamine. Format: functional.
Assay [10] has as its target T3, Histamine H2 receptor. Briefly: Antagonist activity at human histamine H2 receptor expressed in sf9 cell membrane co-expressing Gsalphas assessed as inhibition of histamine-induced [35S]GTPgammaS binding incubated for 90 mins. Format: functional.
The target of assay [11] is T1, Histamine H3 receptor. Briefly: Antagonist activity at human histamine H3 receptor expressed in sf9 cell membrane co-expressing mammalian Galphai2 and Gbeta1gamma2 assessed as inhibition of histamine-induced [35S]GTPgammaS binding incubated for 90 mins. Format: functional.
For assay [12], the target named is T3, Histamine H2 receptor. Briefly: Intrinsic activity at human histamine H2 receptor expressed in sf9 cell membrane co-expressing Gsalphas at 10 uM incubated for 90 mins by [35S]GTPgammaS binding assay relative to histamine. Format: functional.
The target of assay [13] is T6, Histamine H4 receptor (Mus musculus) (UniProt Q91ZY2).
T6 sequence (whole entry): T2 sequence (Q91ZY2 whole entry)
Kind of assay: Intrinsic activity at mouse SF-His6-tagged histamine H4 receptor expressed in HEK293 cells assessed as inhibition of forskolin-stimulated response incubated for 5 hrs by luciferase reporter gene assay relative to histamine. The format is cell-based. (In general: In a reporter assay the amount or activity of a reporter protein is the signal.)

For assay [14], the target named is T3, Histamine H2 receptor. Kind of assay: Agonist activity at human histamine H2 receptor expressed in sf9 cell membrane co-expressing Gsalphas incubated for 90 mins by [35S]GTPgammaS binding assay. The format is functional.
The target in assay [15] is T5, Histamine H1 receptor. Kind of assay: Antagonist activity at human histamine H1 receptor expressed in sf9 cell membrane co-expressing RGS4 assessed as inhibition of histamine-induced increase in 32Pi level preincubated for 2 mins followed by [gamma-32P]GTP addition measured after 20 mins by liquid scintillation counting method.
Assay [16] deals with T1, Histamine H3 receptor. Kind of assay: Displacement of [3H]N-alpha-methylhistamine from human histamine H3 receptor expressed in human SK-N-MC cells incubated for 40 mins. Format: cell-based.
The target of assay [17] is T4, Histamine H4 receptor. Kind of assay: biochemical. Format: cell-based, SK-N-MC.

T1 sequence (Q9Y5N1 whole entry): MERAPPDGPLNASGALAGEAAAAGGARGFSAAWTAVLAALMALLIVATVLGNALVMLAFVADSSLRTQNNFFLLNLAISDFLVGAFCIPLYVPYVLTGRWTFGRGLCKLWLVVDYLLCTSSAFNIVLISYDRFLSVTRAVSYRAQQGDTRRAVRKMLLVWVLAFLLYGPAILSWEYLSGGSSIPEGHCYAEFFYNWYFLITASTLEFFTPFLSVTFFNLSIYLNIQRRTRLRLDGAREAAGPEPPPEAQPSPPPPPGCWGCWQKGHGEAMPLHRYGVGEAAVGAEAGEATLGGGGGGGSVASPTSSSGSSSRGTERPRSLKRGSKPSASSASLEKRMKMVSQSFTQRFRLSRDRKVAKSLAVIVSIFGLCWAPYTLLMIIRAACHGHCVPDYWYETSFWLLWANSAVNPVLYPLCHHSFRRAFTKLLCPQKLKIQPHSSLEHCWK
T5 sequence (P35367 whole entry): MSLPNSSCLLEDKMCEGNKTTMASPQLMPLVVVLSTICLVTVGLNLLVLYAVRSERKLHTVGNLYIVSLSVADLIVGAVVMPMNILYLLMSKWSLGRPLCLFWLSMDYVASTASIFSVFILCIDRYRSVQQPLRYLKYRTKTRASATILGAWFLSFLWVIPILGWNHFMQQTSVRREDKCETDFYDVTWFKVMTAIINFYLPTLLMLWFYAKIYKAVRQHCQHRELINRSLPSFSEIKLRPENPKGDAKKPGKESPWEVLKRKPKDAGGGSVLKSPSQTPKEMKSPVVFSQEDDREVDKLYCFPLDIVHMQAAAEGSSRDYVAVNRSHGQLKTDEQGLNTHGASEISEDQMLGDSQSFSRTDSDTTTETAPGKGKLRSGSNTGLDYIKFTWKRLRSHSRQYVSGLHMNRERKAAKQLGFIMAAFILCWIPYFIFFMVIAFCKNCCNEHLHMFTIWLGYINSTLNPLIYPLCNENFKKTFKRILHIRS
T3 sequence (P25021 whole entry): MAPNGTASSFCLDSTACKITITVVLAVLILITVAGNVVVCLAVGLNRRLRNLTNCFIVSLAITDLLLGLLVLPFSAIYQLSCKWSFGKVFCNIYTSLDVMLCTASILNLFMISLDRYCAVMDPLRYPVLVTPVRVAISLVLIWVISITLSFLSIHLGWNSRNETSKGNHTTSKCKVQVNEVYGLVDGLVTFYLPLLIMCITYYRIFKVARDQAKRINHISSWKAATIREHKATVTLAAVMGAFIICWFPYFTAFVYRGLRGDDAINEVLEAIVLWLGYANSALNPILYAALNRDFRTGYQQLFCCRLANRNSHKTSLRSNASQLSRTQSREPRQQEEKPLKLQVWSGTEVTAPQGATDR
T4 sequence (Q9H3N8 whole entry): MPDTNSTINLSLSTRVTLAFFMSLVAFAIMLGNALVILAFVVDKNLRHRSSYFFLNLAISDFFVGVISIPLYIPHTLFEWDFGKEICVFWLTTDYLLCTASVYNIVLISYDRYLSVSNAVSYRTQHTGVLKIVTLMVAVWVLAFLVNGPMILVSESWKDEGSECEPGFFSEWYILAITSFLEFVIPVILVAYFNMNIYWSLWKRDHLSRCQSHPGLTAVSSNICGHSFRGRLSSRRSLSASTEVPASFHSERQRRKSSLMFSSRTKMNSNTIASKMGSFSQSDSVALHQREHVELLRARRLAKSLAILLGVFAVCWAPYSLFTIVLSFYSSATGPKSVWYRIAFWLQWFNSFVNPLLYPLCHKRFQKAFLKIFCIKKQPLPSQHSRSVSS

Usually EC50 stands for the concentration giving half of the maximal effect. A word on the Ki: it is a dissociation constant, usually derived from enzyme kinetics or from competition with a known ligand. The low end stands for a stronger hold on the target, the high end for a looser hold on the target. Regarding `CN/C(=N\C#N)NC[C@H]1CC[C@H](c2c[nH]cn2)C1`, the EC50 on Histamine H3 receptor [1] amounted to 994 nM; at Histamine H4 receptor [2], 538 nM; on Histamine H4 receptor [5], 63 nM; at Histamine H4 receptor [8], 100 nM. The Ki on Histamine H2 receptor [3] is above 10000 nM; on Histamine H4 receptor [4], 98 nM; on Histamine H1 receptor [6] (sf9) it was above 10000 nM; on Histamine H3 receptor [7] it was 958 nM.

The Kb is the affinity of an antagonist, worked out from how it opposes an agonist. Take `N#C/N=C(/NCCSc1ccccc1)NC[C@@H]1CC[C@@H](c2c[nH]cn2)C1`: the Intrinsic activity on Histamine H3 receptor [9] is -0.21; at Histamine H2 receptor [12] it was 0; in [13] it was 0.29. Besides, the results for the EC50 at Histamine H4 receptor [2] and at Histamine H4 receptor [5] were 589 nM and 500 nM, respectively. For the same compound, the Ki on Histamine H2 receptor [3] came out at 9820 nM; at Histamine H4 receptor [4], 1050 nM; at Histamine H1 receptor [6], 7910 nM; on Histamine H3 receptor [7], 590 nM. For the same compound, the Kb was above 10000 nM at Histamine H2 receptor [10] and 143 nM at Histamine H3 receptor [11].

For `N#C/N=C(/NCCSc1ccccc1)NC[C@H]1CC[C@H](c2c[nH]cn2)C1`, the EC50 is 166 nM on Histamine H4 receptor [2], 25 nM at Histamine H4 receptor [5] and 11 nM on Histamine H4 receptor [8]. Besides, the Ki stood at 10300 nM at Histamine H2 receptor [3], 22 nM at Histamine H4 receptor [4], 6520 nM on Histamine H1 receptor [6] and 2130 nM at Histamine H3 receptor [7].

As for `CN/C(=N\C#N)NC[C@@H]1CC[C@@H](c2c[nH]cn2)C1`, the EC50 at Histamine H3 receptor [1] amounted to 9200 nM; at Histamine H4 receptor [2], 3630 nM; on Histamine H4 receptor [8], 1100 nM. Also, the Intrinsic activity on Histamine H3 receptor [9] was 0.29; on Histamine H2 receptor [12], 0; in assay [13] it was 0.96. Further, the Ki on Histamine H2 receptor [3] is above 10000 nM; at Histamine H4 receptor [4], 870 nM; on Histamine H1 receptor [6] it was above 10000 nM; at Histamine H3 receptor [7], 5680 nM. In addition, the Kb on Histamine H2 receptor [10] is above 10000 nM.

Consider `NC[C@H]1CC[C@H](c2c[nH]cn2)C1` (racemic), for which the Intrinsic activity at Histamine H3 receptor [9] and on Histamine H2 receptor [12] was 0 each time. Further, the figures for the EC50 at Histamine H2 receptor [14] and on Histamine H4 receptor [8] were above 10000 nM and 1710 nM, respectively. Besides, the Ki on Histamine H1 receptor [6] is above 10000 nM. In addition, at Histamine H3 receptor [11], the Kb was 103 nM.

Regarding `NC[C@@H]1CC[C@H](c2c[nH]cn2)C1` (racemic), the Intrinsic activity is 0 on Histamine H3 receptor [9] and 0.19 at Histamine H2 receptor [12]. The figures for the EC50 on Histamine H2 receptor [14] and at Histamine H4 receptor [8] were above 10000 nM and 150 nM, respectively. The Ki on Histamine H1 receptor [6] is above 10000 nM. For the same compound, the Kb on Histamine H3 receptor [11] is 62 nM.

Consider `N#C/N=C(/NCCSc1ccccc1)NC[C@@H]1CC[C@H](c2c[nH]cn2)C1` (racemic), for which the values for the Intrinsic activity at Histamine H3 receptor [9] and at Histamine H2 receptor [12] were -0.34 and 0, respectively. The results for the Kb on Histamine H2 receptor [10], at Histamine H3 receptor [11] and on Histamine H1 receptor [15] were above 10000 nM, 162 nM and 3800 nM, respectively.

As for `N#C/N=C(/NCCSc1ccccc1)NC[C@H]1CC[C@H](c2c[nH]cn2)C1` (racemic), the Intrinsic activity at Histamine H3 receptor [9] is -0.4; on Histamine H2 receptor [12], 0. Moreover, the Kb is above 10000 nM at Histamine H2 receptor [10], 246 nM on Histamine H3 receptor [11] and 6000 nM on Histamine H1 receptor [15].

Take `NCCCCc1c[nH]cn1` [IMBUTAMINE]: the values for the Ki at Histamine H3 receptor [16] and at Histamine H4 receptor [17] were 4.3 nM and 12.7 nM, respectively.

For the origin of these results see ChEMBL document CHEMBL3804756 (J Med Chem, 2016).
